From patent US10113185B2, “Utilization of phosphoketolase in the production of mevalonate, isoprenoid precursors, and isoprene” (Danisco US Inc., priority 2011, dated 2018)
Read-outs that look alike come from different tables or passages of the source.

Experiments:
[1] = test system: Bifidobacterium breve phosphoketolase; settings: cited from earlier work
[2] = test system: Leuconostoc oenos phosphoketolase; settings: Veiga-da-Cunha et al. (1993), cited from earlier work
[3] = test system: Lactobacillus plantarum phosphoketolase; settings: cited from earlier work
[4] = test system: Bifidobacterium lactis phosphoketolase; settings: Meile et al. (2001), cited from earlier work
[5] = test system: Enterococcus gallinarum phosphoketolase (E. gallinarum PKL), encoded by SEQ ID NO:17; assay: Kinetic analysis of purified E. gallinarum phosphoketolase (ferric hydroxamate assay, AcP formation); format: biochemical
Description: The amino acid sequence of Enterococcus gallinarum PKL was obtained from GeneBank and was processed in GeneArt optimization software for optimized expression in E. coli. Two base pairs were added in front of the PKL gene to form a NcoI site and a Sad site was inserted just after the stop codon. The synthesized PKL gene was cloned into GeneArt kanamycin-resistant cloning plasmid. The E. gallinarum PKL gene (SEQ ID NO:17) was then subcloned into a BspHI/SacI-digested pTrcHis2B vector (Life Technologies, Carlsbad, Calif.) to form plasmid pCMP1321.
Cells were grown in LB medium with 50 ug/ml carbenecillin at 37 C prior to induction. […] For purification, E. gallinarum PKL cell pellets were resuspended in 50 mM MES pH 6.0, 50 mM NaCL, 0.5 mM AEBSF, 0.1 mg/ml DNaseI. […] Clarified lysate containing PKL from E. gallinarum was loaded onto a DEAE HiTrap FF column equilibrated in 50 mM MES, 50 mM NaCl, pH 6 and eluted with a gradient to 50 mM MES, 1M NaCl, pH 6. The resulting fractions were analyzed by SDS-PAGE. Fractions containing PKL were pooled and desalted using a G25 desalting column into 50 mM MES, 50 mM NaCL pH 6.0. Further purification was achieved using a MonoQ 10/100 GL column equilibrated in 50 mM MES, 50 mM NaCL, pH 6 with a salt gradient to 1M NaCl. Fractions containing PKL were pooled and analyzed by SDS PAGE, quantitation was achieved using A280 a molar extinction coefficient of 136980 determined by Vector NTI.
Time points were taken at various intervals. […] An AcP standard curve ranging between 12.5 and 0.2 mM was generated for quantitation.

[6] = test system: Lactobacillus paraplantarum C7 phosphoketolase; settings: Jeong et al. (2007), cited from earlier work
[7] = target: T1, Bifidobacterium longum phosphoketolase (B. longum PKL), SEQ ID NO: 4 (encoded by SEQ ID NO:3) (Bifidobacterium longum, UniProt A0ACD7USP0); settings: 37° C., pH 6, saturating Pi (20 mM), enzyme 0.25 μM, time measured 60
T1 sequence (A0ACD7USP0 1-825): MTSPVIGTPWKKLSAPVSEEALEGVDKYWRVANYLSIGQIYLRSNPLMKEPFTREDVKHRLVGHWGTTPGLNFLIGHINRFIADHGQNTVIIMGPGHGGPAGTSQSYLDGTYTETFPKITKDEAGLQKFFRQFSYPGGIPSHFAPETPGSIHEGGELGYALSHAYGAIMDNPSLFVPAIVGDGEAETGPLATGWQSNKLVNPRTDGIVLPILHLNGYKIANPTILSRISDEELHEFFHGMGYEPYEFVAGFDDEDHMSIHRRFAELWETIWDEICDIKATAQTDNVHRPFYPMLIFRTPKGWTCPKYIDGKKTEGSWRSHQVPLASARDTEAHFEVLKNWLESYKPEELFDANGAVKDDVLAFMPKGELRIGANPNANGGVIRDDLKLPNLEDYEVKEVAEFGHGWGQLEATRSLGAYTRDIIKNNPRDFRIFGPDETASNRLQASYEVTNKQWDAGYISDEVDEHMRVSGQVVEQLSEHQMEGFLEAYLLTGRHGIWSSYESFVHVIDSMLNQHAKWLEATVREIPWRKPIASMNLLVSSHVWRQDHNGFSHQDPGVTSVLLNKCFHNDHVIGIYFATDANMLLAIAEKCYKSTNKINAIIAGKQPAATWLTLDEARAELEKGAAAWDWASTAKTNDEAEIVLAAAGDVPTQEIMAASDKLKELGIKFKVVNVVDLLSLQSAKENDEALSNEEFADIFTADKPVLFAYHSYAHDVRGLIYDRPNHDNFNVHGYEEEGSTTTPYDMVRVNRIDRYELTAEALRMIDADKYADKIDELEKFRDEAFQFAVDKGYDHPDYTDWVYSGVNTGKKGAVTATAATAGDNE

[8] = test system: Bifidobacterium dentium ATCC27534 phosphoketolase; settings: Grill et al. (1995), cited from earlier work
[9] = test system: Bifidobacterium animalis ATCC 25527 phosphoketolase; settings: Grill et al. (1995), cited from earlier work
[10] = test system: Bifidobacterium globosum ATCC 25864 phosphoketolase; settings: Grill et al. (1995), cited from earlier work
[11] = test system: Bifidobacterium longum BB536 phosphoketolase; settings: Grill et al. (1995), cited from earlier work
[12] = substrate: O=P(O)(O)OC[C@H]1OC(O)(CO)[C@@H](O)[C@@H]1O; assay: purified protein, by the assay type; settings: other: 37° C., pH 6, saturating Pi (20 mM), enzyme 0.25 μM, time measured 60
[13] = 37° C., pH 6, saturating Pi (20 mM), enzyme 0.5 μM, time measured 30

For O=C(CO)[C@@H](O)[C@H](O)COP(=O)(O)O [X5P, xylulose 5-phosphate], the “kcat(X5P)” value ([1]; Suzuki et al. (2010)) is given as “kcat (X5P) = 44.8 s^−1”, the “kcat(X5P)” value [2] is given as “kcat (X5P) = 3.5 s^−1” and the Km ([2]; read-out: Km(X5P)) is given as 1.6 mM. The “kcat(X5P)” value ([3]; Yevenes and Frey (2008)) was “kcat(X5P) = 6.1 s^−1”, the Km ([3]; Yevenes and Frey (2008), read-out: Km(X5P)) was 3.6 mM and the “kcat(X5P)” value [4] was “kcat(X5P) = 42 s^−1”. For the same molecule, the Km ([4]; read-out: Km(X5P)) was 55 mM, the Km [5, 13] was 5.81 mM and the Vmax [5, 13] was 2.18 µM/s. The kcat [5, 13] was 4.4 s⁻¹ and the kcat ([5]; saturating Pi) was 4.4 s⁻¹.

For O=P(O)(O)O [Pi, inorganic phosphate], the Km ([1]; for F6P as a substrate, read-out: KmPi) is given as 1.2 mM, the Km ([3]; for F6P as a substrate, read-out: Km(Pi)) is given as 2.9 mM and the Km ([3]; for X5P as a substrate, read-out: Km(Pi)) is given as 7.5 mM.

In the case of O=P(O)(O)OC[C@H]1OC(O)(CO)[C@@H](O)[C@@H]1O (stereo partly drawn) [F6P, fructose 6-phosphate], the “kcat (F6P)” value [6] is given as “kcat(F6P) = 738 s^−1”, the Km ([6]; read-out: Km(F6P)) is given as 5.1 mM and the “kcat (F6P)” value ([1]; Suzuki et al. (2010)) is given as “kcat (F6P) = 22.4 s^−1”. For the same molecule, the Km ([1]; read-out: Km(F6P), Suzuki et al. (2010)) was 9.7 mM, the “kcat (F6P)” value [2] was “kcat (F6P) = 0.2 s−1” and the Km ([2]; read-out: Km(F6P)) was 22 mM. For the same molecule, the “kcat (F6P)” value ([3]; Yevenes and Frey (2008)) was “kcat(F6P) = 2.7 s^−1”, the Km ([3]; read-out: Km(F6P), Yevenes and Frey (2008)) was 24 mM and the kcat [7] was 16.6 s⁻¹. The “kcat (F6P)” value [8] was “kcat (F6P) = 33 s^−1”, the Km ([8]; read-out: Km(F6P)) was 23 mM and the “kcat (F6P)” value [9] was “kcat (F6P) = 33 s^−1”. For the same molecule, the Km ([9]; read-out: Km(F6P)) was 11.5 mM, the “kcat (F6P)” value [4] was “kcat(F6P) = 8 s^−1” and the Km ([4]; read-out: Km(F6P)) was 10 mM. It also gave a Km [5, 13] of 2.86 mM, a Vmax [5, 13] of 0.71 µM/s and a kcat [5, 13] of 1.4 s⁻¹. For the same molecule, the kcat ([5]; saturating Pi) was 1.4 s⁻¹, the “kcat (F6P)” value [10] was “kcat (F6P) = 40 s^−1” and the Km ([10]; read-out: Km(F6P)) was 12.5 mM. The “kcat (F6P)” value [11] was “kcat (F6P) = 39 s^−1” and the Km ([11]; read-out: Km(F6P)) was 26 mM.

For O=C[C@H](O)[C@H](O)COP(=O)(O)O [E4P, erythrose 4-phosphate], the Ki ([3]; for F6P as a substrate, read-out: Kis^E4P) is listed as 8 mM and the Ki ([3]; for F6P as a substrate, read-out: Kll^E4P) is listed as 4.4 mM.

B1: Bifidobacterium longum phosphoketolase (B. longum PKL), SEQ ID NO: 4 (encoded by SEQ ID NO:3) (Bifidobacterium longum subsp. infantis ATCC 15697 = JCM 1222 = … (protein)
chain: MTSPVIGTPWKKLSAPVSEEALEGVDKYWRVANYLSIGQIYLRSNPLMKEPFTREDVKHRLVGHWGTTPGLNFLIGHINRFIADHGQNTVIIMGPGHGGPAGTSQSYLDGTYTETFPKITKDEAGLQKFFRQFSYPGGIPSHFAPETPGSIHEGGELGYALSHAYGAIMDNPSLFVPAIVGDGEAETGPLATGWQSNKLVNPRTDGIVLPILHLNGYKIANPTILSRISDEELHEFFHGMGYEPYEFVAGFDDEDHMSIHRRFAELWETIWDEICDIKATAQTDNVHRPFYPMLIFRTPKGWTCPKYIDGKKTEGSWRSHQVPLASARDTEAHFEVLKNWLESYKPEELFDANGAVKDDVLAFMPKGELRIGANPNANGGVIRDDLKLPNLEDYEVKEVAEFGHGWGQLEATRSLGAYTRDIIKNNPRDFRIFGPDETASNRLQASYEVTNKQWDAGYISDEVDEHMRVSGQVVEQLSEHQMEGFLEAYLLTGRHGIWSSYESFVHVIDSMLNQHAKWLEATVREIPWRKPIASMNLLVSSHVWRQDHNGFSHQDPGVTSVLLNKCFHNDHVIGIYFATDANMLLAIAEKCYKSTNKINAIIAGKQPAATWLTLDEARAELEKGAAAWDWASTAKTNDEAEIVLAAAGDVPTQEIMAASDKLKELGIKFKVVNVVDLLSLQSAKENDEALSNEEFADIFTADKPVLFAYHSYAHDVRGLIYDRPNHDNFNVHGYEEEGSTTTPYDMVRVNRIDRYELTAEALRMIDADKYADKIDELEKFRDEAFQFAVDKGYDHPDYTDWVYSGVNTGKKGAVTATAATAGDNE
Molecule B1 has a Km [12] of 21.16 mM, a Vmax [12] of 265 µM/min and a kcat [12] of 16.6 s⁻¹.
